Data published in article PMC11161800, “Principles of peptide selection by the transporter associated with antigen processing” (Proceedings of the National Academy of Sciences of the …, 2024).

Tested on: human TAP
Assay: NADH-coupled steady-state ATP hydrolysis (ATPase) assay of purified TAP
Assay type: biochemical
Conditions: 28 °C; for Stimulation of ATP hydrolysis by shortened b27 peptides: TAP 0.5 µM, peptides 20 µM, ATP 3 mM, means of three technical replicates of three biological replicates (n = 9), one-way ANOVA, Fig. 4A
Method: Steady-state ATP hydrolysis activity was measured using a nicotinamide adenine dinucleotide (NADH)-coupled assay. Purified TAP was diluted to a final concentration of 0.5 µM in freshly prepared reaction buffer containing 50 mM HEPES (pH 8.0 with KOH), 150 mM KCl, 2 mM MgCl2, 2 mM DTT, 0.004% (w/v) digitonin, 60 µg mL^−1 pyruvate kinase (Roche), 32 µg mL^−1 lactate dehydrogenase (Roche), 9 mM phosphoenolpyruvate and 150 µM NADH. Peptide substrates were added to a final concentration of 20 µM unless specified otherwise. Then, 30 µL aliquots were dispensed into Corning 384-well Black/Clear Flat Bottom Polystyrene NBS Microplates, and reactions were initiated by the addition of 3 mM ATP. NADH consumption was measured by monitoring the rate of NADH fluorescence depletion at λex = 340 nm and λem = 445 nm at 28 °C using an Infinite M1000 microplate reader (Tecan). Data were converted to ATP turnover with an NADH standard curve. Technical replicates were measured in parallel from the same protein preparation on the same day and biological replicates were measured from different protein preparations from different cells on different days.

| Substance | Stimulation of ATP hydrolysis by shortened b27 peptides | Stimulation of ATP hydrolysis by shortened b27 peptides (listed as B27′) | ATPase activity as a function of b27 concentration (0.5 µM TAP, 3 mM ATP, pH 8.0, three technical replicates (n = 3), Fig. 1B) |
| --- | --- | --- | --- |
| RRYQSTEL [b27′, 8-mer modified b27 peptide lacking the central lysine at position five] | stimulated ATP hydrolysis | increased the ATPase activity of TAP to a slightly greater extend compared to b27 | – |
| RRYSTEL [b27″, 7-mer modified b27 peptide lacking the lysine and the adjacent glutamine] | neither of the 7-mer peptides were able to stimulate ATP hydrolysis and not | – | – |
| b27: 9-mer peptide RRYQKSTEL, well-characterized substrate transported by TAP and presented by HLA-B27 [reference compound] | – | – | stimulated in a dose-dependent manner |
| b27″(Q): 7-mer modified b27 peptide lacking the lysine and the adjacent serine (RRYQTEL) | neither of the 7-mer peptides were able to stimulate ATP hydrolysis and not | – | – |
